Test systems include SF-539 CNS; BT-549 breast; HCC-2998 colon; HOP-62 NSCLC; HOP-92 NSCLC; MDA-MB-231 breast.
Assay in all cases: NCI-60 cell line screen, 48 h

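Each compound was tested at five concentrations against cells in 96-well plates for 48 hours. GI50 marks 50% less growth. At the TGI there is no net growth.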

For `CN1CCN(CCCNc2nc3ccc(Oc4ccc(NC(=O)Nc5cc(C(F)(F)F)ccc5F)cc4)cc3[nH]2)CC1`, the GI50 was 4.22 µM in the experiment on SF-539 CNS; 4.23 µM in the experiment with BT-549 breast; 4.35 µM with HCC-2998 colon; 3.84 µM in the experiment with HOP-62 NSCLC; 2.91 µM with HOP-92 NSCLC; 3.97 µM in the experiment on MDA-MB-231 breast. The TGI was 8.52 µM with SF-539 CNS; 8.04 µM in the experiment with BT-549 breast; 8.1 µM with HCC-2998 colon; 7.25 µM in the experiment on HOP-62 NSCLC; 12.1 µM in the experiment with HOP-92 NSCLC; 7.65 µM in the experiment on MDA-MB-231 breast.

`COc1ccc(C(=O)c2cc(OC)c(OC)c(OC)c2)cc1/C=C/C(=O)c1ccc(F)cc1`: the GI50 in the experiment with SF-539 CNS is 1.98 µM; with BT-549 breast, 3.27 µM; with HCC-2998 colon, 7.29 µM; in the experiment with HOP-62 NSCLC it was 3.92 µM; in the experiment on HOP-92 NSCLC, 2.7 µM; in the experiment on MDA-MB-231 breast, 4.72 µM. Besides, the TGI with SF-539 CNS stood at 4.3 µM; in the experiment with BT-549 breast, 13.1 µM; in the experiment with HCC-2998 colon it was 22.6 µM; with HOP-62 NSCLC it was 26.7 µM; in the experiment with HOP-92 NSCLC, 34.9 µM; in the experiment on MDA-MB-231 breast, 84.5 µM.

Take `C=C1C(=O)O[C@H]2[C@H]1CC/C(COC(=O)NCCCCNC(=O)OC/C1=C/CC[C@@]3(C)O[C@H]3[C@H]3OC(=O)C(=C)[C@@H]3CC1)=C\CC[C@@]1(C)O[C@@H]21`: the GI50 was 1.55 µM in the experiment on SF-539 CNS; 1.6 µM in the experiment with BT-549 breast; 2.35 µM in the experiment on HCC-2998 colon; 3.84 µM with HOP-62 NSCLC; 0.287 µM with HOP-92 NSCLC; 1.53 µM with MDA-MB-231 breast. Also, the TGI is 3.71 µM in the experiment on SF-539 CNS; 3.63 µM in the experiment on BT-549 breast; 4.78 µM with HCC-2998 colon; 14 µM in the experiment on HOP-62 NSCLC; 1.06 µM with HOP-92 NSCLC; 3.24 µM with MDA-MB-231 breast.

In the case of `CCOC(=O)C1CCN(S(=O)(=O)/N=C2/NC(=O)NC2=C(Cl)Cl)CC1`, the GI50 in the experiment on SF-539 CNS is 0.525 µM; in the experiment on BT-549 breast, 1.68 µM; with HCC-2998 colon, 2.05 µM; with HOP-62 NSCLC it was 0.971 µM; in the experiment with HOP-92 NSCLC, 1.62 µM; in the experiment on MDA-MB-231 breast, 1.94 µM. Also, the TGI with SF-539 CNS turned out to be 4.44 µM; in the experiment with BT-549 breast, 3.65 µM; in the experiment on HCC-2998 colon, 3.67 µM; in the experiment with HOP-62 NSCLC, 16.5 µM; with HOP-92 NSCLC, 3.29 µM; with MDA-MB-231 breast it was 3.54 µM.

Turning to `COC(=O)Nc1nc2ccc(C3(c4ccc(F)cc4)OCCO3)cc2[nH]1`, the GI50 is 0.196 µM in the experiment on SF-539 CNS; 2.77 µM in the experiment on BT-549 breast; 1.99 µM with HCC-2998 colon; 3.24 µM with HOP-62 NSCLC; 0.268 µM with HOP-92 NSCLC; 0.598 µM in the experiment with MDA-MB-231 breast. Besides, the TGI was 0.52 µM in the experiment with SF-539 CNS; above 100 µM with BT-549 breast; above 100 µM in the experiment with HCC-2998 colon; above 100 µM in the experiment on HOP-62 NSCLC; 58 µM in the experiment with HOP-92 NSCLC; 99.5 µM in the experiment with MDA-MB-231 breast.

As for `O=C1c2cccnc2-c2nc(-c3ccc(Cl)cc3)cc3c2c1nc1ccccc13`, the GI50 with SF-539 CNS was 59.8 µM; in the experiment on BT-549 breast, 18 µM; with HCC-2998 colon, above 100 µM; with HOP-92 NSCLC, 22.9 µM; in the experiment with MDA-MB-231 breast it was 44.1 µM. For the same compound, the TGI with SF-539 CNS was above 100 µM; with BT-549 breast it was 51.1 µM; in the experiment on HCC-2998 colon, above 100 µM; in the experiment with HOP-92 NSCLC, 74.1 µM; with MDA-MB-231 breast, above 100 µM.

Take `CC1=C(/C=C/Cl)CC(Cl)C(C)(Cl)C1` (stereo not given): the TGI in the experiment on SF-539 CNS, in the experiment on BT-549 breast, in the experiment on HCC-2998 colon, with HOP-92 NSCLC and in the experiment with MDA-MB-231 breast was above 100 µM in each case.

Take `N#Cc1cc(-c2cc3ccccc3o2)oc1N`: the GI50 in the experiment with SF-539 CNS is 3.89 µM; with BT-549 breast, 3.58 µM; in the experiment with HCC-2998 colon, 4.92 µM; with HOP-62 NSCLC it was 3.18 µM; with MDA-MB-231 breast, 1.89 µM. The TGI in the experiment with SF-539 CNS came out at 14.5 µM; in the experiment with BT-549 breast it was 14 µM; with HCC-2998 colon, 18.9 µM; in the experiment with HOP-62 NSCLC, 11.3 µM; in the experiment with MDA-MB-231 breast, 4.76 µM.

In the case of `CCNCCNc1cc(-c2ccc(C(F)(F)F)cc2)c(C#N)c2nc3ccccc3n12`, the GI50 with BT-549 breast was 1.59 µM; in the experiment on HCC-2998 colon, 1.8 µM; in the experiment with HOP-62 NSCLC, 1.56 µM; with HOP-92 NSCLC it was 1.55 µM; with MDA-MB-231 breast, 1.16 µM. The TGI was found to be 3.16 µM in the experiment with BT-549 breast; 3.4 µM in the experiment on HCC-2998 colon; 3.18 µM in the experiment with HOP-62 NSCLC; 2.98 µM in the experiment with HOP-92 NSCLC; 2.52 µM in the experiment with MDA-MB-231 breast.

On to `COc1ccc(C[N+](C)(C)N)cc1OC`, for which the GI50 with SF-539 CNS, with BT-549 breast, in the experiment on HOP-62 NSCLC, in the experiment with HOP-92 NSCLC and with MDA-MB-231 breast was above 100 µM in each case. The TGI in the experiment on SF-539 CNS, with BT-549 breast, in the experiment with HOP-62 NSCLC, in the experiment with HOP-92 NSCLC and in the experiment on MDA-MB-231 breast was above 100 µM throughout.

On to `COc1cc2c(cc1OCCCCC(=O)Nc1cc3c4ccccc4ccc3c3ccccc13)N=C[C@@H]1CCCN1C2=O`, for which the GI50 in the experiment with SF-539 CNS was 2.22 µM; in the experiment on HCC-2998 colon it was 10.9 µM; with HOP-62 NSCLC, 10.1 µM; in the experiment on HOP-92 NSCLC it was 1.45 µM; in the experiment with MDA-MB-231 breast it was 1.06 µM. For the same compound, the TGI with SF-539 CNS is 9.06 µM; in the experiment on HCC-2998 colon it was 33.5 µM; in the experiment on HOP-62 NSCLC, 40.8 µM; in the experiment with HOP-92 NSCLC, above 20.9 µM; in the experiment with MDA-MB-231 breast, 17 µM.

For `S=c1ssc(N2CCOCC2)c1Cl`, the GI50 in the experiment on SF-539 CNS was 31.4 µM; in the experiment on HCC-2998 colon, 30.6 µM; in the experiment with HOP-62 NSCLC, above 100 µM; in the experiment on HOP-92 NSCLC, 78.3 µM; with MDA-MB-231 breast, 26.6 µM. The TGI with SF-539 CNS is 76.3 µM; in the experiment on HCC-2998 colon, above 100 µM; with HOP-62 NSCLC, above 100 µM; with HOP-92 NSCLC, above 100 µM; in the experiment on MDA-MB-231 breast it was above 100 µM.

Turning to `c1ccc(Sc2ccc(Cc3nc4cc5ccccc5cc4[nH]3)cc2)cc1`, the GI50 in the experiment on SF-539 CNS was 1.34 µM; in the experiment on BT-549 breast, 16.4 µM; in the experiment on HOP-62 NSCLC it was 8.71 µM; in the experiment on HOP-92 NSCLC, 6.33 µM; with MDA-MB-231 breast, 3.31 µM. Further, the TGI with SF-539 CNS was 19.5 µM; in the experiment on BT-549 breast, above 84.9 µM; in the experiment with HOP-62 NSCLC it was above 75.5 µM; in the experiment with HOP-92 NSCLC, 66.3 µM; in the experiment with MDA-MB-231 breast, 29.9 µM.

(Values after PubChem BioAssay (NCI).)
